PubChem BioAssay (NCI)
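GI50 = concentration required for 50% inhibition of growth. TGI: concentration producing complete growth inhibition.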

Legend:
Assay in all cases: NCI anticancer screen, dose series, 384-well format
NCI-H226 lung = tested on: NCI-H226 lung
NCI-H23 lung = tested on: NCI-H23 lung
NCI-H322M lung = tested on: NCI-H322M lung
NCI-H522 lung = tested on: NCI-H522 lung
NCI/ADR-RES ovarian = tested on: NCI/ADR-RES ovarian
OVCAR-3 ovarian = tested on: OVCAR-3 ovarian
OVCAR-4 ovarian = tested on: OVCAR-4 ovarian
OVCAR-5 ovarian = tested on: OVCAR-5 ovarian
OVCAR-8 ovarian = tested on: OVCAR-8 ovarian
PC-3 prostate = tested on: PC-3 prostate
RPMI-8226 leukemia = tested on: RPMI-8226 leukemia
RXF 393 renal = tested on: RXF 393 renal
SF-268 CNS = tested on: SF-268 CNS
SF-295 CNS = tested on: SF-295 CNS
SF-539 CNS = tested on: SF-539 CNS
SK-MEL-2 melanoma = tested on: SK-MEL-2 melanoma
SK-MEL-28 melanoma = tested on: SK-MEL-28 melanoma
SK-OV-3 ovarian = tested on: SK-OV-3 ovarian
SN12C renal = tested on: SN12C renal
SNB-19 CNS = tested on: SNB-19 CNS
SNB-75 CNS = tested on: SNB-75 CNS
SW-620 colon = tested on: SW-620 colon
T-47D breast = tested on: T-47D breast
TK-10 renal = tested on: TK-10 renal
U251 glioblastoma = tested on: U251 glioblastoma
UACC-257 melanoma = tested on: UACC-257 melanoma
UACC-62 melanoma = tested on: UACC-62 melanoma
UO-31 renal = tested on: UO-31 renal

Structure (SMILES): Cn1nnc2c(C(N)=O)ncn2c1=O
- TGI (NCI-H226 lung): > 100 µM
- GI50 (NCI-H23 lung): > 100 µM
- TGI (NCI-H23 lung): > 100 µM
- GI50 (NCI-H322M lung): > 100 µM
- TGI (NCI-H322M lung): > 100 µM
- GI50 (NCI-H522 lung): > 100 µM
- TGI (NCI-H522 lung): > 100 µM
- GI50 (NCI/ADR-RES ovarian): > 100 µM
- TGI (NCI/ADR-RES ovarian): > 100 µM
- GI50 (OVCAR-3 ovarian): > 100 µM
- TGI (OVCAR-3 ovarian): > 100 µM
- GI50 (OVCAR-4 ovarian): > 100 µM
- TGI (OVCAR-4 ovarian): > 100 µM
- GI50 (OVCAR-5 ovarian): > 100 µM
- TGI (OVCAR-5 ovarian): > 100 µM
- GI50 (OVCAR-8 ovarian): > 100 µM
- TGI (OVCAR-8 ovarian): > 100 µM
- GI50 (PC-3 prostate): > 100 µM
- TGI (PC-3 prostate): > 100 µM
- GI50 (RPMI-8226 leukemia): > 100 µM
- TGI (RPMI-8226 leukemia): > 100 µM
- GI50 (RXF 393 renal): > 100 µM
- TGI (RXF 393 renal): > 100 µM
- GI50 (SF-268 CNS): > 100 µM
- TGI (SF-268 CNS): > 100 µM
- GI50 (SF-295 CNS): > 100 µM
- TGI (SF-295 CNS): > 100 µM
- GI50 (SF-539 CNS): > 100 µM
- TGI (SF-539 CNS): > 100 µM
- GI50 (SK-MEL-2 melanoma): > 100 µM
- TGI (SK-MEL-2 melanoma): > 100 µM
- GI50 (SK-MEL-28 melanoma): > 100 µM
- TGI (SK-MEL-28 melanoma): > 100 µM
- GI50 (SK-OV-3 ovarian): > 100 µM
- TGI (SK-OV-3 ovarian): > 100 µM
- GI50 (SN12C renal): > 100 µM
- TGI (SN12C renal): > 100 µM
- GI50 (SNB-19 CNS): > 100 µM
- TGI (SNB-19 CNS): > 100 µM
- GI50 (SNB-75 CNS): > 100 µM
- TGI (SNB-75 CNS): > 100 µM
- GI50 (SW-620 colon): > 100 µM
- TGI (SW-620 colon): > 100 µM
- GI50 (T-47D breast): > 100 µM
- TGI (T-47D breast): > 100 µM
- GI50 (TK-10 renal): > 100 µM
- TGI (TK-10 renal): > 100 µM
- GI50 (U251 glioblastoma): > 100 µM
- TGI (U251 glioblastoma): > 100 µM
- GI50 (UACC-257 melanoma): > 100 µM
- TGI (UACC-257 melanoma): > 100 µM
- GI50 (UACC-62 melanoma): > 100 µM
- TGI (UACC-62 melanoma): > 100 µM
- GI50 (UO-31 renal): > 100 µM
- TGI (UO-31 renal): > 100 µM
